How the values were obtained:
[1] = mn = molality of the nth substance listed, in mol/kg; conditions: 298.15 K, 101 kPa, Liquid; for molar conductivity: Alternating current cell with electrodes; for mass density: Vibrating tube method
[2] = refractive index (Na D-line) (dimensionless); mn = molality of the nth substance listed, in mol/kg; conditions: 298.15 K, 101 kPa, Liquid, Standard Abbe refractometry

CCCCCCn1cc[n+](C)c1.[Br-] [3-hexyl-1-methyl-1H-imidazolium bromide] + O
[1]
Conditions	mass density [kg/m3]	molar conductivity [S·m2/mol]
m1 = 0.1017	1001.8	–
m1 = 0.2038	1006.13	–
m1 = 0.3005	1010.26	–
m1 = 0.3716	–	0.01169
m1 = 0.4033	1014.58	–
m1 = 0.9047	–	0.01149
m1 = 1.268	–	0.01134
m1 = 1.963	–	0.01117
m1 = 2.512	–	0.01099
m1 = 3.102	–	0.01085
m1 = 3.708	–	0.01072
m1 = 4.273	–	0.01055
m1 = 4.944	–	0.01044
m1 = 5.55	–	0.01034

O=C[C@H](O)[C@@H](O)[C@H](O)[C@H](O)CO [D-glucose] + O
Conditions	mass density, [1] [kg/m3]	refractive index, [2]
m1 = 0.0104	997.75	1.3328
m1 = 0.03	999.09	1.3334
m1 = 0.05	1000.45	1.3339
m1 = 0.0705	1001.83	1.3343
m1 = 0.0899	1003.13	1.3349
m1 = 0.1102	1004.48	1.3352
m1 = 0.1301	–	1.3357
m1 = 0.1496	–	1.3361
m1 = 0.1691	–	1.3366
